In brackets after ≈: the same amount, converted by molar mass.
Columns and labels:
Assay type in all cases: functional
Bacillus subtilis = experiment: Antibacterial activity against Bacillus subtilis KCCM 11316 assessed as inhibition of bacterial growth incubated for 24 hrs by broth dilution method
[1] = test system: Staphylococcus epidermidis; experiment: Antibacterial activity against Staphylococcus epidermidis KCCM 35494 assessed as inhibition of bacterial growth incubated for 24 hrs by broth dilution method
Escherichia coli = experiment: Antibacterial activity against Escherichia coli KCCM 11234 assessed as inhibition of bacterial growth incubated for 24 hrs by broth dilution method
Pseudomonas fluorescens = experiment: Antibacterial activity against Pseudomonas fluorescens KCCM 11362 assessed as inhibition of bacterial growth incubated for 24 hrs by broth dilution method

MIC (Bacillus subtilis) [µg/mL]	MIC [1] [µg/mL]	MIC (Escherichia coli) [µg/mL]	MIC (Pseudomonas fluorescens) [µg/mL]	Compound
> 128	4 (≈ 5.14 µM)	16 (≈ 20.6 µM)	16 (≈ 20.6 µM)	CC[C@@H](C)[C@H]1NC(=O)[C@H](Cc2ccccc2)NC(=O)[C@@H](CCCCN)NC(=O)[C@H](Cc2ccc(O)cc2)NC(=O)[C@H]([C@@H](C)CC)NC(=O)[C@@H](CC(C)C)NC1=O
> 128	8 (≈ 10.5 µM)	16 (≈ 20.9 µM)	32 (≈ 41.9 µM)	CC[C@H](C)[C@@H]1NC(=O)[C@@H](CC(C)C)NC(=O)[C@@H](C(C)C)NC(=O)[C@H](Cc2ccccc2)NC(=O)[C@@H](CCCCN)NC(=O)[C@H](Cc2ccc(O)cc2)NC1=O

Compound	MIC (Bacillus subtilis) [µg/mL]	MIC [1] [µg/mL]	MIC (Escherichia coli) [µg/mL]	MIC (Pseudomonas fluorescens) [µg/mL]
NC[C@H]1O[C@H](O[C@H]2[C@H](O)[C@@H](O[C@H]3O[C@H](CO)[C@@H](O)[C@H](N)[C@H]3O)[C@H](N)C[C@@H]2N)[C@H](O)[C@@H](O)[C@@H]1O [KANAMYCIN]	2 (≈ 4.13 µM)	0.5 (≈ 1.03 µM)	1 (≈ 2.06 µM)	1 (≈ 2.06 µM)

Source: ChEMBL document CHEMBL5335854, “Genomic and Metabolomic Analyses of Nocardiopsis maritima YSL2 as the Mycorrhizosphere Bacterium of Suaeda maritima (L.) Dumort” (2024)
